target: T1, vanilloid receptor (Rattus norvegicus, UniProt O35433); assay: 45Ca influx test in cultured neonatal rat DRG neurons, inhibition of capsaicin response; assay type: cell-based; details: neonatal rat DRG neurons, capsaicin 0.5 μM, 45Ca influx; read-out: Antagonist Calcium Uptake Test (IC50)
T1 construct: DRG nerve cells from the primary culture of 2 days were equilibrated; endogenous in cells; host or cells: primary culture of dorsal root ganglion neurons from neonatal SD rats
Outline: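 45Ca influx measured by scintillation counting of SDS-eluted neurons after 10 min at room temperature with test compound, 0.5 μM capsaicin (final) and 10 μCi/ml 45Ca in Ca/Mg-free HEPES-HBSS pH 7.4. Cells: primary DRG neurons from newborn SD rats, cultured 2 days with NGF and Ara-C.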

T1 sequence (O35433 whole entry): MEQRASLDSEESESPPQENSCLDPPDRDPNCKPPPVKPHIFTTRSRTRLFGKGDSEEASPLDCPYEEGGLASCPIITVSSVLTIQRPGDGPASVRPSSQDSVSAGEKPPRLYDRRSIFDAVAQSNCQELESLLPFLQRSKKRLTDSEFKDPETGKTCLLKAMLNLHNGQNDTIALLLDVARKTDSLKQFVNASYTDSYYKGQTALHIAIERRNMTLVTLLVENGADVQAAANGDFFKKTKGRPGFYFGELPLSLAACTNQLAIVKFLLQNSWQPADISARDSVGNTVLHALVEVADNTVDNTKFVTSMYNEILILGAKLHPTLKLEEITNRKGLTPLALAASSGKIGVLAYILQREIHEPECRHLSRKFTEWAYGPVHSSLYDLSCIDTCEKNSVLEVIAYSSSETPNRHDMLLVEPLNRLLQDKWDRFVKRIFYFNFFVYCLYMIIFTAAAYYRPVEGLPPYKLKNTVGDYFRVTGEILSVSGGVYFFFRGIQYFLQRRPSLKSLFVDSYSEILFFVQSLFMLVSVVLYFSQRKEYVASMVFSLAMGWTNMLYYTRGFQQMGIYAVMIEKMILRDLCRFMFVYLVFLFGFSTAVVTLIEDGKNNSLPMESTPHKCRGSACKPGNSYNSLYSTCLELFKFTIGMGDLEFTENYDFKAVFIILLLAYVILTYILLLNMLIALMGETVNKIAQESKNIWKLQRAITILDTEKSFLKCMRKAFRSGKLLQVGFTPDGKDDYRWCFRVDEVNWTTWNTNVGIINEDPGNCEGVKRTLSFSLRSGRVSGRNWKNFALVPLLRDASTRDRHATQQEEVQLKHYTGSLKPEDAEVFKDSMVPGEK

| IC50 [µM] | Structure (SMILES) |
| --- | --- |
| 1.4 | CS(=O)(=O)Nc1ccc(CNC(=O)/C=C/c2ccc(C(F)(F)F)nc2N2CCCC2)cc1F [Example 55, N-(3-Fluoro-4-methanesulfonylamino-benzyl)-3-(2-pyrrolidin-1-yl-6-trifluoromethyl-pyridin-3-yl)-acrylamide] |
| 0.4 | CCCCNc1nc(C(F)(F)F)ccc1/C=C/C(=O)NCc1ccc(NS(C)(=O)=O)c(F)c1 [Example 88, 3-(2-Butylamino-6-trifluoromethyl-pyridin-3-yl)-N-(3-fluoro-4-methanesulfonylamino-benzyl)-acrylamide] |
| 1.1 | CS(=O)(=O)Nc1ccc(CNC(=O)/C=C/c2ccc(C(F)(F)F)nc2N2CCCCC2)cc1F [Example 26, N-(3-Fluoro-4-methanesulfonylamino-benzyl)-3-(2-piperid-1-yl-6-trifluoromethyl-pyridinyl-3-yl)-acrylamide] |
| > 10 | CS(=O)(=O)Nc1ccc(CNC(=O)/C=C/c2cnc(Cl)cc2C(F)(F)F)cc1F [Example 53, 3-(6-Chloro-4-trifluoromethyl-pyridin-3-yl)-N-(3-fluoro-4-methanesulfonylamino-benzyl)-acrylamide] |
| 0.056 | CCNc1nc(C(F)(F)F)ccc1/C=C/C(=O)NCc1cc(F)c(NS(C)(=O)=O)c(F)c1 [Example 257, N-(3,5-Difluoro-4-methanesulfonylamino-benzyl)-3-(2-ethylamino-6-trifluoromethyl-pyridin-3-yl)-acrylamide] |
| 1.4 | CS(=O)(=O)Nc1ccc(CNC(=O)/C=C/c2ccc(C(F)(F)F)nc2OCc2ccccc2)cc1F [Example 112, 3-(2-Benzyloxy-6-trifluoromethyl-pyridin-3-yl)-N-(3-fluoro-4-methanesulfonylamino-benzyl)-acrylamide] |
| 0.46 | Cc1cc(CNC(=O)/C=C/c2ccc(C(F)(F)F)nc2-c2cccc(F)c2)cc(F)c1NS(C)(=O)=O [Example 180, N-(3-Fluoro-4-methanesulfonylamino-5-methyl-benzyl)-3-[2-(3-fluoro-phenyl)-6-trifluoromethyl-pyridin-3-yl]-acrylamide] |
| 1.2 | CCCCc1nc(C(F)(F)F)ccc1C#CC(=O)N[C@H](C)c1ccc(NS(C)(=O)=O)c(F)c1 [Example 274, 3-(2-Butyl-6-trifluoromethyl-pyridin-3-yl)-propynoic acid [1-(3-fluoro-4-methane sulfonylamino-phenyl)-ethyl]-amide] |
| 0.19 | CC(C)c1nc(C(F)(F)F)ccc1/C=C/C(=O)NCc1cc(F)c(NS(C)(=O)=O)c(F)c1 [Example 232, N-(3,5-Difluoro-4-methanesulfonylamino-benzyl)-3-(2-isopropyl-6-trifluoromethyl-pyridin-3-yl)-acrylamide] |
| 0.14 | C#Cc1cc(CNC(=O)/C=C/c2ccc(C(C)(C)C)nc2Cl)cc(F)c1NS(C)(=O)=O [Example 51, 3-(6-tert-Butyl-2-chloro-pyridin-3-yl)-N-(3-ethynyl-5-fluoro-4-methanesulfonylamino-benzyl)-acrylamide] |
| 0.051 | C#Cc1cc(CNC(=O)/C=C/c2ccc(C(F)(F)F)nc2CC(C)C)cc(F)c1NS(C)(=O)=O [Example 148, N-(3-Ethynyl-5-fluoro-4-methanesulfonylamino-benzyl)-3-(2-isobutyl-6-trifluoromethyl-pyridin-3-yl)-acrylamide] |
| 1.6 | CC(C)(C)c1ccc(/C=C/C(=O)NCc2cc(F)c(NS(C)(=O)=O)c(F)c2)cn1 [Example 39, 3-(6-tert-Butyl-pyridin-3-yl)-N-(3,5-difluoro-4-methanesulfonylamino-benzyl)-acrylamide] |
| 1.1 | CS(=O)(=O)Nc1c(F)cc(CNC(=O)/C=C/c2ccc(C(F)(F)F)nc2N2CCOCC2)cc1F [Example 21, N-(3,5-Difluoro-4-methanesulfonylamino-benzyl)-3-(2-morpholin-4-yl-6-trifluoromethyl-pyridin-3-yl)-acrylamide] |

From patent US7858621B2 (Amorepacific Corporation, priority 2006, dated 2010)
